# Test results as given in patent US12589143B2, “Human anti-PD-L1 peptide vaccines and methods of their use” (priority 2019, dated 2026).
# Where no end group is shown, it is not given here.
# Test system: CT26 colon carcinoma cell line
# Experiment: CT26 WT tumor challenge in immunized Balb/c mice
# Format: in vivo
# Conditions: for tumor inhibition versus PBS: Balb/c; for average tumor growth inhibition: day 14 and 16
# Description: FIGS. 5A, 5B, 5C, and 5D show the experimental scheme to test the immunization with PD-L1 in Balb/c mice. […] Balb/c mice 6-8 weeks old, were immunized with MVF-peptide immunogens emulsified in ISA 720 with nor-MDP three times and three weeks apart. Mice were immunized with MVF-PD-L1 vaccine constructs [PD-L1(36-53), PD-L1(50-67), PD-L1(95-112), PD-L1(130-147)] prior to tumor challenge. Blood was collected weekly and sera tested for antibody titers by ELISA. Two weeks after the third immunization (3Y), the mice were engrafted with CT26 WT tumor cells 10^5 per mouse Control mice were treated twice weekly with PBS as negative control and twice weekly with anti-mPD-L1 mAb (10F.9G2) as positive control starting 2 days after tumor challenge. Tumor growths were observed twice weekly and measured by calipers.
# The peptide vaccines were dissolved in water and emulsified in Montanide ISA 720 (1:1) and 100 μg nor-MDP (N-acetylglucosamine-3yl-acetyl-1-alanyl-d-isoglutamine). Female Balb/c mice (Charles River Laboratories) at the age of 5 to 6 weeks were immunized three times at 3-week intervals with 100 μg peptide vaccine, and 15 days after the third immunization, the mice were challenged s.c. with CT-26 tumor cells (100,000 per mouse). Mice immunized with an irrelevant MVF peptide chimera were used as a negative control.
# Mice treated twice a week with anti-mouse PD-L1 MAb (Bio X Cell, West Lebanon, NH) 200 ug/dose was used as a positive control. Tumor growth was monitored for up to 18 days after challenge. During immunization, blood was drawn biweekly and used in ELISA to monitor Ab titers. The mice were euthanized at the end of treatment and tumors extracted and weighed samples of the tumors were saved for further study and for histological examination. The spleens were also collected for further examination.
# Two weeks after the third immunization (3Y), the mice were inoculated subcutaneously (s.c) with CT26 carcinoma cells (1×10^5 cells per mouse) and tumor formation was monitored on a daily basis afterwards. Mice treated with PBS served as negative control, and twice weekly treated mice with 200 μg/dose injections of anti-mouse PD-L1 monoclonal antibody (mAb clone 10F.9G2) served as positive control. Tumor growth was monitored daily and measured by caliper. […] PD-L1 B-cell epitope vaccines treatment had similar and significant reduction in tumor growth at day 16 post challenge as compared to negative control treatment with PBS (FIG. 9).
# 6-8 weeks old BALB/c mice (Charles River, Wilmington, MA) were used as standard animal models. Mouse CT26 colon carcinoma cell line was purchased from American Type Culture Collection Cells and were regularly cultured in RPMI1640 medium containing 10% FBS. CT26/HER2 cells were kindly provided by M. Penichet. Vaccines were dissolved in sterile water and emulsified in Montanide ISA 720 (1:1). Female Balb/c mice (Charles River Laboratories) at the age of 6-8 weeks were immunized three times at 3-week intervals with 100 μg of each peptide vaccine, and 2 weeks after the third immunization, the mice were challenged with CT26 and/or CT26/HER-2 tumor cells, which were implanted subcutaneously (s.c) on the right flank (1×10^5 per mouse). 200 μg of rat α-mouse PD-L1 mAb 10F.9G2 (Bio X Cell, West Lebanon, NH) were administered intraperitoneally (i.p.), twice weekly following tumor inoculation in the control group. Mice were monitored and scored for the formation of palpable tumors on a daily basis and sacrificed if tumors became necrotic or exceeded the predetermined size of 2,000 mm^3. Tumor volumes were measured in cubic millimeters with calipers and calculated with the following formula: A×B^2×0.5, where A is the largest diameter, and B is the widest point perpendicular to length. During immunization, blood was drawn weekly and used in ELISA to monitor antibody titers.
# Tumor sizes were observed daily and measured by caliper. Tumor volumes were calculated by formula: Volume=(Length*Width*Width)/2. […]
Sequence,tumor inhibition versus PBS,average tumor growth inhibition,levels of lesions,percentage of tumor growth inhibition compared to negative control,survival rate (Kaplan-Meier method)
KLLSLIKGVIVHRLEGVEGPSLFVHGEEDLKVQHSSYRQR (KLLSLIKGVIVHRLEGVEGPSLFVHGEEDLKVQHSSYRQR-NH2) [PD-L1(50)],significant inhibition of tumor growth,strongest average tumor growth inhibition,–,–,–
KLLSLIKGVIVHRLEGVEGPSLLIVYWEMEDKNIIQFVHG (KLLSLIKGVIVHRLEGVEGPSLLIVYWEMEDKNIIQFVHG-NH2) [PD-L1(36)],–,strongest average tumor growth inhibition,–,–,–
KLLSLIKGVIVHRLEGVEGPSLVTSEHELTCQAEGYPKAE (KLLSLIKGVIVHRLEGVEGPSLVTSEHELTCQAEGYPKAE-NH2) [PD-L1(130)],significant inhibition of tumor growth,strongest average tumor growth inhibition,lowest levels of lesions,Significant higher percentage of tumor growth inhibition,highest survival rate
